Results from patent publication US5672715A, “Herbicidal substituted 3-aryl-pyrazoles” (Monsanto Company, priority 1995, dated 1997).

What was measured:
Type in all cases: in vivo
Bedstraw Catchweed [1] = test: pre-emergence herbicide test; details: Galium aparine, pre-emergence, read-out: % plant inhibition; for inhibition at 200.072 g/ha: 0.1785 lb/A; for inhibition at 1000.92 g/ha: 0.893 lb/A; for inhibition at 5043.82 g/ha: 4.5 lb/A
In short: (§1)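 Soil-applied pre-emergence screen: compound added to cover topsoil over sown seeds, pans held on greenhouse bench with subirrigation, % inhibition scored ~2 weeks later.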

Blackgrass = test: pre-emergence herbicide test; details: Alopecurus myosuroides, pre-emergence, read-out: % plant inhibition; for inhibition at 200.072 g/ha: 0.1785 lb/A; for inhibition at 1000.92 g/ha: 0.893 lb/A; for inhibition at 5043.82 g/ha: 4.5 lb/A
In short: as §1

Wheat [2] = test: pre-emergence herbicide test; details: Triticum aestivum, pre-emergence, read-out: % plant inhibition; for inhibition at 200.072 g/ha: 0.1785 lb/A; for inhibition at 1000.92 g/ha: 0.893 lb/A; for inhibition at 5043.82 g/ha: 4.5 lb/A
In short: as §1

Common Chickweed = test: pre-emergence herbicide test; details: pre-emergence, read-out: % plant inhibition; for inhibition at 200.072 g/ha: 0.1785 lb/A; for inhibition at 1000.92 g/ha: 0.893 lb/A; for inhibition at 5043.82 g/ha: 4.5 lb/A
In short: as §1

Bedstraw Catchweed [3] = test: post-emergence herbicide test; details: for inhibition at 200.072 g/ha: 0.1785 lb/A; for inhibition at 5043.82 g/ha: 4.5 lb/A; for inhibition at 40.0143 g/ha: 0.0357 lb/A
In short: (§2)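 Plants were raised from seed in topsoil pans in the greenhouse and treated post-emergence at two to three weeks of age. Candidate chemical was applied in spray solution or suspension containing about 0.4% emulsifier at 1870 L/Ha. Activity recorded as percent inhibition.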

Yellow Nutsedge = test: post-emergence herbicide test; details: Cyperus, read-out: % plant inhibition; for inhibition at 200.072 g/ha: 0.1785 lb/A; for inhibition at 1000.92 g/ha: 0.893 lb/A; for inhibition at 5043.82 g/ha: 4.5 lb/A; for inhibition at 40.0143 g/ha: 0.0357 lb/A
In short: as §2

Cocklebur = test: post-emergence herbicide test; details: Xanthium strumarium, post-emergence, read-out: % plant inhibition; for inhibition at 200.072 g/ha: 0.1785 lb/A; for inhibition at 1000.92 g/ha: 0.893 lb/A; for inhibition at 5043.82 g/ha: 4.5 lb/A; for inhibition at 40.0143 g/ha: 0.0357 lb/A
In short: as §2

Corn = test: post-emergence herbicide test; details: Zea mays, post-emergence, read-out: % plant inhibition; for inhibition at 200.072 g/ha: 0.1785 lb/A; for inhibition at 1000.92 g/ha: 0.893 lb/A; for inhibition at 5043.82 g/ha: 4.5 lb/A; for inhibition at 40.0143 g/ha: 0.0357 lb/A
In short: as §2

Wheat [4] = test: post-emergence herbicide test; details: for inhibition at 5043.82 g/ha: 4.5 lb/A; for inhibition at 40.0143 g/ha: 0.0357 lb/A
In short: as §2

[5] = Galium aparine, post-emergence, read-out: % plant inhibition
[6] = Galium aparine, post-emergence, 0.893 lb/A, read-out: % plant inhibition
[7] = Triticum aestivum, post-emergence, 0.1785 lb/A, read-out: % plant inhibition
[8] = Triticum aestivum, post-emergence, 0.893 lb/A, read-out: % plant inhibition
[9] = Triticum aestivum, post-emergence, read-out: % plant inhibition

Compound | inhibition at 200.072 g/ha (Bedstraw Catchweed [1]) | inhibition at 1000.92 g/ha (Bedstraw Catchweed [1]) | inhibition at 5043.82 g/ha (Bedstraw Catchweed [1]) | inhibition at 200.072 g/ha (Blackgrass) | inhibition at 1000.92 g/ha (Blackgrass) | inhibition at 5043.82 g/ha (Blackgrass) | inhibition at 200.072 g/ha (Wheat [2]) | inhibition at 1000.92 g/ha (Wheat [2]) | inhibition at 5043.82 g/ha (Wheat [2]) | inhibition at 1000.92 g/ha (Bedstraw Catchweed [3]; [6]) | inhibition at 5043.82 g/ha (Bedstraw Catchweed [3]; [5]) | inhibition at 200.072 g/ha (Yellow Nutsedge) | inhibition at 1000.92 g/ha (Yellow Nutsedge) | inhibition at 5043.82 g/ha (Yellow Nutsedge) | inhibition at 200.072 g/ha (Cocklebur) | inhibition at 5043.82 g/ha (Cocklebur) | inhibition at 200.072 g/ha (Corn) | inhibition at 5043.82 g/ha (Corn) | inhibition at 1000.92 g/ha (Wheat [4]; [8]) | inhibition at 5043.82 g/ha (Wheat [4]; [9]) | other results
Cn1nc(-c2cc(F)ccc2F)c(C=O)c1C(F)(F)F [Compound 34] | 0% | 0% | 10% | 0% | 0% | 25% | 0% | 0% | 5% | 0% | 80% | 0% | 0% | 0% | 0% | 25% | 0% | 15% | 0% | 10% | inhibition at 200.072 g/ha (Common Chickweed): 0%; inhibition at 1000.92 g/ha (Common Chickweed): 0%; inhibition at 5043.82 g/ha (Common Chickweed): 0%; inhibition at 200.072 g/ha (Bedstraw Catchweed [3]; [5]): 0%; inhibition at 1000.92 g/ha (Cocklebur): 0%; inhibition at 1000.92 g/ha (Corn): 0%; inhibition at 200.072 g/ha (Wheat [4]; [7]): 0%
Cc1c(-c2cc(F)c([N+](=O)[O-])cc2F)nn(C)c1C(F)(F)F [Compound 35] | 30% | 100% | 100% | 0% | 35% | 80% | 0% | 0% | 10% | 75% | 85% | 0% | 0% | 0% | 0% | 90% | 20% | 75% | 20% | 25% | inhibition at 200.072 g/ha (Common Chickweed): 0%; inhibition at 1000.92 g/ha (Common Chickweed): 35%; inhibition at 5043.82 g/ha (Common Chickweed): 95%; % plant inhibition (Bedstraw Catchweed [3]; 0.893 lb/A): 95%; inhibition at 7.95803 g/ha (Bedstraw Catchweed [3]; Galium aparine, post-emergence, 0.0071 lb/A, read-out: % plant inhibition): 0%; inhibition at 40.0143 g/ha (Bedstraw Catchweed [3]; [5]): 25%; inhibition at 7.95803 g/ha (Yellow Nutsedge; 0.0071 lb/A): 0%; inhibition at 40.0143 g/ha (Yellow Nutsedge): 0%; inhibition (Yellow Nutsedge; 0.1725 lb/A): 0%; inhibition at 7.95803 g/ha (Cocklebur; 0.0071 lb/A): 0%; inhibition at 40.0143 g/ha (Cocklebur): 0%; inhibition (Cocklebur; 0.1725 lb/A): 0%; inhibition at 7.95803 g/ha (Corn; 0.0071 lb/A): 0%; inhibition at 40.0143 g/ha (Corn): 0%; inhibition (Corn; 0.1725 lb/A): 30%; % plant inhibition (Wheat [4]; 0.1785 lb/A): 5%; % plant inhibition (Wheat [4]; 0.893 lb/A): 15%; inhibition at 7.95803 g/ha (Wheat [4]; Triticum aestivum, post-emergence, 0.0071 lb/A, read-out: % plant inhibition): 0%; inhibition at 40.0143 g/ha (Wheat [4]; [9]): 0%
Cc1c(-c2cc(F)ccc2F)nn(C)c1C(F)(F)F [Compound 1, 3-(2,5-Difluorophenyl)-1,4-dimethyl-5-(trifluoromethyl)-1H-pyrazole] | 0% | 0% | 0% | 0% | 0% | 15% | 0% | 0% | 10% | 0% | 30% | 0% | 0% | 30% | 0% | 0% | 0% | 40% | 0% | 10% | inhibition at 200.072 g/ha (Common Chickweed): 0%; inhibition at 1000.92 g/ha (Common Chickweed): 0%; inhibition at 5043.82 g/ha (Common Chickweed): 0%; inhibition at 200.072 g/ha (Bedstraw Catchweed [3]; [5]): 0%; inhibition at 1000.92 g/ha (Cocklebur): 0%; inhibition at 1000.92 g/ha (Corn): 0%; inhibition at 200.072 g/ha (Wheat [4]; [7]): 0%
Cc1c(-c2cc(O)c(Cl)cc2F)nn(C)c1C(F)(F)F [Compound 40] | – | – | – | – | – | – | – | – | – | 98% | 100% | 55% | 0% | 0% | 65% | 100% | 45% | 50% | 20% | 25% | inhibition at 40.0143 g/ha (Bedstraw Catchweed [3]; [5]): 20%; inhibition at 200.072 g/ha (Bedstraw Catchweed [3]; [5]): 60%; inhibition at 40.0143 g/ha (Yellow Nutsedge): 70%; inhibition at 40.0143 g/ha (Cocklebur): 80%; inhibition at 1000.92 g/ha (Cocklebur): 70%; inhibition at 40.0143 g/ha (Corn): 25%; inhibition at 1000.92 g/ha (Corn): 85%; inhibition at 40.0143 g/ha (Wheat [4]; [9]): 0%; inhibition at 200.072 g/ha (Wheat [4]; [7]): 15%
